Where two headings read alike, the source gives them in different places.
Tested on: streptavidin
Description: The fluid channel was at first flown with Tris buffer from syringe A into the device 400 received at the corresponding inlet 411.
The acquired signals were measured from the drain current of the exemplary FET 432. […] This was similarly repeated with 1 mM streptavidin protein in the Tris buffer from syringe B. For example, 20 mM Tris buffer (pH=7.4) was prefilled in the channel and then 1 mM avidin was flowed in the 20 mM Tris buffer in the channel.

## O=C(O)CCCC[C@@H]1SC[C@@H]2NC(=O)N[C@@H]21 [biotin]
pre-mixed 0.2 mM streptavidin with 4 mM biotin (1:20) in Tris buffer
  binding indicated by FET signal waveform: some biotin molecules have bonded with streptavidin
pre-mixed 1 mM streptavidin with 4 mM biotin in Tris buffer
  binding indicated by FET signal waveform: streptavidin and biotin bind together
